Measurements taken from US20040067531A1, “Methods of modulating protein tyrosine kinase function with substituted indolinone compounds” (SUGEN, INC., priority 1997, published 2004).
pIC50: −log10 of the molar value. Like-named read-outs stand apart in the source and are kept apart here.

Assays:
[1] = test system: FGF-induced BrdU incorporation; test: FGF-induced BrdU incorporation assay; type: cell-based; settings: read-out: FGF-Induced BrdU Incorp. IC50
Protocol: PDGF-, FGF-, and EGF-Induced BRDU Incorporation Assay
1. Cells were seeded at 8000 cells/well in DMEM, 10% CS, 2 mM Gln in a 96 well plate. Cells were incubated overnight at 37° C. in 5% CO2.
2. After 24 hours, the cells were washed with PBS, and then were serum starved in serum free medium (0% CS DMEM with 0.1% BSA) for 24 hours.
3. On day 3, ligand (PDGF=3.8 nM, prepared in DMEM with 0.1% BSA) and test compounds were added to the cells simultaneously. The negative control wells received serum free DMEM with 0.1% BSA only; the positive control cells received the ligand (PDGF) but no test compound. Test compounds were prepared in serum free DMEM with ligand in a 96 well plate, and serially diluted for 7 test concentrations.
4. After 20 hours of ligand activation, diluted BrdU labeling reagent (1:100 in DMEM, 0.1% BSA) was added and the cells were incubated with BrdU (final concentration=10 μM) for 1.5 hours.
5. After incubation with labeling reagent, the medium was removed by decanting and tapping the inverted plate on a paper towel. FixDenat solution was added (50 μL/well) and the plates were incubated at room temperature for 45 minutes on a plate shaker.
6. The FixDenat solution was thoroughly removed by decanting and tapping the inverted plate on a paper towel. Milk was added (5% dehydrated milk in PBS, 200 μL/well) as a blocking solution and the plate was incubated for 30 minutes at room temperature on a plate shaker.
7. The blocking solution was removed by decanting and the wells were washed once with PBS. Anti-BrdU-POD solution (1:100 dilution in PBS, 1% BSA) was added (100 μL/well), and the plate was incubated for 90 minutes at room temperature on a plate shaker.
8. The antibody conjugate was thoroughly removed by decanting and rinsing the wells 5 times with PBS, and the space was dried by inverting and tapping on a paper towel.
9. TMB substrate solution was added (100 μL/well) and incubated for 20 minutes at room temperature on a plate shaker until color development was sufficient for photometric detection.
10. The absorbance of the samples were measured at 410 nm (in “dual wavelength” mode with a filter reading at 490 nm, as a reference wavelength) on a Dynatech ELISA plate reader.
The IC50 values were measured for several of the compounds of the invention. These values are depicted in Table 10.

[2] = test system: HUV-EC-C cells; aFGF (ECGF); test: HUVEC-aFGF 3H-thymidine incorporation assay; type: cell-based, human
Protocol: The following protocol is used to measure a compound's activity against VEGF and aFGF, all of which are expressed by HUVEC cells.
Repeat the wash two more times with D-PBS, resuspend the cells in about 1 mL assay medium/15 cm^2 of tissue culture flask.
Add cells to 96-well flat-bottom plates at 100 μL/well or 0.8-1.0×10^4 cells/well; incubate ˜24h at 37° C., 5% CO^2.
Use the same assay medium as mentioned in day 0, step 2 above. Titrations are made by adding 90 μL/well of drug at 200 μM (4× the final well concentration) to the top well of a particular plate column. Since the stock drug concentration is usually 20 mM in DMSO, the 200 μM drug concentration contains 2% DMSO.
Therefore, diluent made up to 2% DMSO in assay medium (F12K+0.5% fetal bovine serum) is used as diluent for the drug titrations in order to dilute the drug but keep the DMSO concentration constant. Add this diluent to the remaining wells in the column at 60 μL/well. Take 60 μL from the 120 μL of 200 μM drug dilution in the top well of the column and mix with the 60 μL in the second well of the column. Take 60 μL from this well and mix with the 60 μL in the third well of the column, and so on until two-fold titrations are completed. When the next-to-the-last well is mixed, take 60 μL of the 120 μL in this well and discard it. Leave the last well with 60 μL of DMSO/media diluent as a non-drug-containing control. Make 9 columns of titrated drug, enough for triplicate wells each for 1) VEGF (obtained from Pepro Tech Inc., catalogue no. […] ECGF comes as a preparation with sodium heparin.
Transfer 50 μL/well of the drug dilutions to the 96-well assay plates containing the 0.8-1.0×10^4 cells/100 μL/well of the HUV-EC-C cells from day 0. and incubate ˜2 h at 37° C., 5% CO2.
In triplicate, add 50 μL/well of 80 μg/mL VEGF, 20 ng/mL ECGF, or media control to each drug condition. As with the drugs, the growth factor concentrations are 4× the desired final concentration. Use the assay media from day 0 step 2 to make the concentrations of growth factors.
Freeze plates overnight at 20° C.

[3] = molecular target: T1, FLK-1 receptor (Mus musculus, UniProt P35918); test: ELISA assay measuring the kinase activity of the FLK-1 receptor in cells engineered to express FLK-1; type: cell-based; settings: NIH3T3 C7#3 FLK-1 expressing cells, VEGF stimulation, phosphotyrosine ELISA
T1 construct: expressed in transfected cells; host or cells: NIH3T3 C7#3
Protocol: An ELISA assay was conducted to measure the kinase activity of the FLK-1 receptor and more specifically, the inhibition or activation of TK activity on the FLK-1 receptor. Specifically, the following assay was conducted to measure kinase activity of the FLK-1 receptor in cells genetically engineered to express FLK-1.
(11) NIH3T3 C7#3 Cells (FLK-1 expressing cells);
The following protocol was used for conducting the assay:
1. Coat Corning 96-well elisa plates with 1.0 μg per well Cappel Anti-rabbit IgG antibody in 0.1 M Na2CO3 pH 9.6. Bring final volume to 150 μL per well. Coat plates overnight at 4° C. Plates can be kept up to two weeks when stored at 4° C.
2. Grow cells in Growth media (DMEM, supplemental with 2.0 mM L-Glutamine, 10% FBS) in suitable culture dishes until confluent at 37° C., 5% CO2.
3. Harvest cells by trypsinization and seed in Corning 25850 polystyrene 96-well roundbottom cell plates, 25.000 cells/well in 200 μL of growth media.
4. Grow cells at least one day at 37° C., 5% CO2.
5. Wash cells-with D-PBS 1×.
6. Add 200 μL/well of starvation media (DMEM, 2.0 mM 1-Glutamine, 0.1% FBS). Incubate overnight at 37° C., 5% CO2.
7. Dilute Compounds 1:20 in polypropylene 96 well plates using starvation media. Dilute dimethylsulfoxide 1:20 for use in control wells.
8. Remove starvation media from 96 well cell culture plates and add 162 μL of fresh starvation media to each well.
9. Add 18 μL of 1:20 diluted Compound dilution (from step 7) to each well plus the 1:20 dimethylsulfoxide dilution to the control wells (+/− VEGF), for a final dilution of 1:200 after cell stimulation. Final dimethylsulfoxide is 0.5%. Incubate the plate at 37° C., 5% CO2 for two hours.
10. Remove unbound antibody from ELISA plates by inverting plate to remove liquid. Wash 3 times with TBSW+0.5% ethanolamine, pH 7.0. Pat the plate on a paper towel to remove excess liquid and bubbles.
11. Block plates with TBSW+0.5% Ethanolamine, pH 7.0, 150 μL per well. Incubate plate thirty minutes while shaking on a microliter plate shaker.
12. Wash plate 3 times as described in step 10.
13. […] Bring final volume to 150 μL/well with TBSW+0.5% ethanolamine pH 7.0. Incubate plate for thirty minutes while shaking.
14. Add 180 μL starvation medium to the cells and stimulate cells with 20 μL/well 10.0 mM sodium ortho vanadate and 500 ng/mL VEGF (resulting in a final concentration of 1.0 mM sodium ortho vanadate and 50 ng/mL VEGF per well) for eight minutes at 37° C., 5% CO2. Negative control wells receive only starvation medium.
15. After eight minutes, media should be removed from the cells and washed one time with 200 μL/well PBS.
16. Lyse cells in 150 μL/well HNTG while shaking at room temperature for five minutes. HNTG formulation includes sodium ortho vanadate, sodium pyro phosphate and EDTA.
17. Wash ELISA plate three times as described in step 10.
18. Transfer cell lysates from the cell plate to ELISA plate and incubate while shaking for two hours. To transfer cell lysate pipette up and down while scrapping the wells.
19. Wash plate three times as described in step 10.
20. Incubate ELISA plate with 0.02 μg/well UB40 in TBSW+05% ethanolamine. Bring final volume to 150 μL/well. Incubate while shaking for 30 minutes.
21. Wash plate three times as described in step 10.
22. Incubate ELISA plate with 1:10,000 diluted EIA grade goat anti-mouse IgG conjugated horseradish peroxidase in TBSW+0.5% ethanolamine, pH 7.0. Bring final volume to 150 μL/well. Incubate while shaking for thirty minutes.
23. Wash plate as described in step 10.
24. Add 100 μL of ABTS/H2O2 solution to well. Incubate ten minutes while shaking.
25. Add 100 μL of 0.2 M HCl for 0.1 M HCl final to stop the color development reaction. Shake 1 minute at room temperature. Remove bubbles with slow stream of air and read the ELISA plate in an ELISA plate reader at 410 nm.
The IC50 values were measured for several of the compounds of the invention.

T1 sequence (P35918 20-1345): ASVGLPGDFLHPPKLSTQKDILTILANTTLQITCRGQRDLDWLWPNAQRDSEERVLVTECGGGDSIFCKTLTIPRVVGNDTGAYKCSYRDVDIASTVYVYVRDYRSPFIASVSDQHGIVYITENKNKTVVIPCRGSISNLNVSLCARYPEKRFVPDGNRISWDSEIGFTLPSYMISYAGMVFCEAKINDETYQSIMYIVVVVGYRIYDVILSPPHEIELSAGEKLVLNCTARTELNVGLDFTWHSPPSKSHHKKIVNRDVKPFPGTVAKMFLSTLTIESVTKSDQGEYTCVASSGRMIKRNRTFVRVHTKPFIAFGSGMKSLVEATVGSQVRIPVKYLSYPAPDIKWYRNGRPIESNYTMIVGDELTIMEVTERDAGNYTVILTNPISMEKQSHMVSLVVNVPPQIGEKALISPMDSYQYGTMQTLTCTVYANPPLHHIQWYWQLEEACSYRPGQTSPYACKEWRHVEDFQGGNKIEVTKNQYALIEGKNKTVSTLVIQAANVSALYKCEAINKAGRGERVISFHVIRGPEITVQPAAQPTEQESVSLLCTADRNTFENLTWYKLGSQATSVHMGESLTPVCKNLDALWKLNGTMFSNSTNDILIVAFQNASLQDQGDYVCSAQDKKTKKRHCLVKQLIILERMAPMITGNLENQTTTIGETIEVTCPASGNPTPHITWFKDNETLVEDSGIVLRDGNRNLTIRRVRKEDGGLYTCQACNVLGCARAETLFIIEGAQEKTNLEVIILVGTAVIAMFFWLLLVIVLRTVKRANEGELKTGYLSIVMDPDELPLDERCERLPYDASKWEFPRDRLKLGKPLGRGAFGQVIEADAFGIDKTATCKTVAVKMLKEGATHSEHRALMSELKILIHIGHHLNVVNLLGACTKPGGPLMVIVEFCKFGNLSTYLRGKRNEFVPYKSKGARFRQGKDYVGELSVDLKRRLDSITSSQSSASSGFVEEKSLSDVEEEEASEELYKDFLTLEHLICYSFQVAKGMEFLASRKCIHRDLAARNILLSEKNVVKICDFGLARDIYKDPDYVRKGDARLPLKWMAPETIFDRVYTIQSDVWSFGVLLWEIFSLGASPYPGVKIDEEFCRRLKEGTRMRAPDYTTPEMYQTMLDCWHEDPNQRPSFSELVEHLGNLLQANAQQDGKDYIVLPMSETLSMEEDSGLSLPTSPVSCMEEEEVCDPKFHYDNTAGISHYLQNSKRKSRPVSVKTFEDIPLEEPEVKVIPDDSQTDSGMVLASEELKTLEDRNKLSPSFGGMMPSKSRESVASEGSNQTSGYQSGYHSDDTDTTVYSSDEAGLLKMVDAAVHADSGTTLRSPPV

| Structure (SMILES) | pIC50 [1] | pIC50 ([2]; Homo sapiens) | pIC50 [3] | pIC50 ([1]; FGF-induced) | pIC50 [2] |
| --- | --- | --- | --- | --- | --- |
| O=C(O)CCc1c(C=C2C(=O)Nc3ccccc32)[nH]c2c1CCCC2 [IN-001, 3-[2-(2-Oxo-1,2-dihydro-indol-3-ylidenemethyl)-4,5,6,7-tetrahydro-1H-indol-3-yl]-propionic acid] | 4.74 | 7.80 | 7.21 | – | – |
| O=C(O)CCc1c(C=C2C(=O)Nc3ccc(Cl)cc32)[nH]c2c1CCCC2 [IN-002, 3-[2-(5-Chloro-2-oxo-1,2-dihydro-indol-3-ylidenemethyl)-4,5.6,7-tetrahydro-1H-indol-3-yl]-propionic acid] | – | – | 7.66 | 4.63 | 6.60 |
| O=C(O)CCc1c(C=C2C(=O)Nc3ccc(Br)cc32)[nH]c2c1CCCC2 [IN-003, 3-[2-(5-Bromo-2-oxo-1,2-dihydro-indol-3-ylidenemethyl)-4,5,6,7-tetrahydro-1H-indol-3-yl]-propionic acid] | 4.80 | 7.12 | 7.54 | – | – |
| Cc1cccc2c1C(=Cc1[nH]c3c(c1CCC(=O)O)CCCC3)C(=O)N2 [IN-004, 3-[2-(4-Methyl-2-oxo-1,2-dihydro-indol-3-ylidenemethyl)-4,5,6,7-tetrahydro-1H-indol-3-yl]-propionic acid] | 4.57 | 8.60 | 7.64 | – | – |
| Cc1ccc2c(c1)C(=Cc1[nH]c3c(c1CCC(=O)O)CCCC3)C(=O)N2 [IN-005, 3-[2-(5-Methyl-2-oxo-1,2-dihydro-indol-3-ylidenemethyl)-4,5,6,7-tetrahydro-1H-indol-3-yl]-propionic acid] | 4.52 | 8.36 | 7.20 | – | – |
| COc1ccc2c(c1)NC(=O)C2=Cc1[nH]c2c(c1CCC(=O)O)CCCC2 [IN-007, 3-[2-(6-Methoxy-2-oxo-1,2-dihydro-indol-3-ylidenemethyl)-4,5,6,7-tetrahydro-1H-indol-3-yl]-propionic acid] | 4.38 | 5.80 | 6.09 | – | – |
| CN(C)C(=O)CCc1c(C=C2C(=O)Nc3ccccc32)[nH]c2c1CCCC2 [IN-008, N,N-Dimethyl-3-[2-(2-oxo-1,2-dihydro-indol-3-ylidenemethyl)-4,5,6,7-tetrahydro-1H-indol-3-yl]-propionamide] | < 4.30 | 5.66 | 6.30 | – | – |
| CN(C)CCCc1c(C=C2C(=O)Nc3ccccc32)[nH]c2c1CCCC2 [IN-009, 3-[3-(3-Dimethylamino-propyl)-4,5,6,7-tetrahydro-1H-indol-2-ylmethylene]-1,3-dihydro-indol-2-one] | < 4.30 | 5.77 | 5.13 | – | – |
| NC(=O)CCc1c(C=C2C(=O)Nc3ccccc32)[nH]c2c1CCCC2 [IN-010, 3-[2-(2-Oxo-1,2-dihydro-indol-3-ylidenemethyl)-4,5,6,7-tetrahydro-1H-indol-3-yl]-propionamide] | < 4.30 | 7.00 | 6.89 | – | – |
| O=C1Nc2ccccc2C1=Cc1[nH]c2c(c1CCC(=O)N1CCOCC1)CCCC2 [IN-011, 3-[3-(3-Morpholin-4-yl-3-oxo-propyl)-4,5 6,7-tetrahydro-1H-indol-2-ylmethylene]-1,3-dihydro-indol-2-one] | < 4.30 | 5.04 | > 6.11 | – | – |
| CNC(=O)CCc1c(C=C2C(=O)Nc3ccccc32)[nH]c2c1CCCC2 [IN-012, N-Methyl-3-[2-(2-oxo-1,2-dihydro-indol-3-ylidenemethyl)-4,5,6,7-tetrahydro-1H-indol-3-yl]-propionamide] | < 4.30 | 6.80 | > 6.11 | – | – |
| O=C(CCc1c(C=C2C(=O)Nc3ccccc32)[nH]c2c1CCCC2)NCCN1CCOCC1 [IN-013, N-(2-Morpholin-4-yl-ethyl)-3-[2-(2-oxo-1,2-dihydro-indol-3-ylidenemethyl)-4,5,6,7-tetrahydro-1H-indol-3-yl]-propionamide] | < 4.30 | 5.68 | 6.20 | – | – |
| Cc1c[nH]c(C=C2C(=O)Nc3ccccc32)c1CCC(=O)O [IN-026, 3-[4-Methyl-2-(2-oxo-1,2-dihydro-indol-3-ylidenemethyl)-1H-pyrrol-3-yl]-propionic acid] | 4.60 | 5.96 | 6.70 | – | – |
| Cc1c[nH]c(C=C2C(=O)Nc3ccc(Cl)cc32)c1CCC(=O)O [IN-027, 3-[2-(5-Chloro-2-oxo-1,2-dihydro-indol-3-ylidenemethyl)-4-methyl-1H-pyrrol-3-yl]-propionic acid] | – | 5.85 | 5.54 | – | – |
| COc1ccc2c(c1)NC(=O)C2=Cc1[nH]cc(C)c1CCC(=O)O [IN-028, 3-[2-(6-Methoxy-2-oxo-1,2-dihydro-indol-3-ylidenemethyl)-4-methyl-1H-pyrrol-3-yl]-propionic acid] | < 4.30 | 5.32 | 5.82 | – | – |
| Cc1c[nH]c(C=C2C(=O)Nc3cccc(C)c32)c1CCC(=O)O [IN-029, 3-[2-(4-Methyl-2-oxo-1,2-dihydro-indol-3-ylidenemethyl)-4-methyl-1H-pyrrol-3-yl]-propionic acid] | < 4.30 | 6.46 | 6.70 | – | – |
| Cc1c[nH]c(C=C2C(=O)Nc3cc(Cl)ccc32)c1CCC(=O)O [IN-030, 3-[2-(6-Chloro-2-oxo-1,2-dihydro-indol-3-ylidenemethyl)-4-methyl-1H-pyrrol-3-yl]-propionic acid] | < 4.30 | 6.59 | 6.72 | – | – |
| Cc1c[nH]c(C=C2C(=O)Nc3ccc(Br)cc32)c1CCC(=O)O [IN-031, 3-[2-(5-Bromo-2-oxo-1,2-dihydro-indol-3-ylidenemethyl)-4-methyl-1H-pyrrol-3-yl]-propionic acid] | < 4.30 | – | 6.46 | – | – |
